The record followed here is paper PMC4455115, “A new arylbenzofuran derivative functions as an anti-tumour agent by inducing DNA damage and inhibiting PARP activity” (Scientific Reports, 2015).

The target in the assay is T1, PARP-1 (Homo sapiens, UniProt P09874).
T1 construct: gene PARP1
Nature of the assay: HT Universal Colorimetric PARP Assay Kit (Trevigen), in vitro PARP-1 activity. It counts as biochemical.

Broadly, the IC50 is the point on the concentration scale where inhibition reaches its midpoint.

T1 sequence (P09874 2-1014): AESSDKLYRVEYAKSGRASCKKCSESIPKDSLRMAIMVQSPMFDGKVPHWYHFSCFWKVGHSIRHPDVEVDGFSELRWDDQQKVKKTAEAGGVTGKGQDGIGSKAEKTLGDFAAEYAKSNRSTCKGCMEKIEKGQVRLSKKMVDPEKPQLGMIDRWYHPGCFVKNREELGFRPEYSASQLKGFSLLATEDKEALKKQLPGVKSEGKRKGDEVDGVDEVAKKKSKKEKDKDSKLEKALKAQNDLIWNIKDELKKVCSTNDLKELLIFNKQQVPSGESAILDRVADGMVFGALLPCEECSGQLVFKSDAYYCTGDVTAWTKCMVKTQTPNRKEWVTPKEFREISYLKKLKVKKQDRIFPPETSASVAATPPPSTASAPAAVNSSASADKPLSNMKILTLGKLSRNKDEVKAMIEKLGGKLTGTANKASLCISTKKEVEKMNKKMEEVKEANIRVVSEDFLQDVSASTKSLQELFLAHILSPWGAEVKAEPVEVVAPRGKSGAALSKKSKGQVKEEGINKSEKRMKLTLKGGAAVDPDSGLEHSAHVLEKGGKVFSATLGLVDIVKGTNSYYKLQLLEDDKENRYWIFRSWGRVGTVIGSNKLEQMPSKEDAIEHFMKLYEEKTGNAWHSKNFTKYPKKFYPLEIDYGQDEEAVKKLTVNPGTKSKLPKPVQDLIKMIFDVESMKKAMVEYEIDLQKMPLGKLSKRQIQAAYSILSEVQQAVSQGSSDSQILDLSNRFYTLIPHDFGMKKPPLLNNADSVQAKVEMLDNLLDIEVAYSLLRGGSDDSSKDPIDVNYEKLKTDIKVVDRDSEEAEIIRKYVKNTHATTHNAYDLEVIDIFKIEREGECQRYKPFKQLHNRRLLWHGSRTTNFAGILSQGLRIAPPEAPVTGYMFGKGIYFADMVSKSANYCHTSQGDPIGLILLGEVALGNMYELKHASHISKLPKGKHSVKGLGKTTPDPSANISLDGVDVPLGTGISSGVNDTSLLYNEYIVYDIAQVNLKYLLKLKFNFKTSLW

As to `COc1ccc(-c2cc3cc(OC)cc(O)c3o2)cc1` [HDAB], the IC50 is 154 µM.
